According to the METLIN SMRT retention time set (Domingo-Almenara et al. 2019):
Values belong to the compound of their own block, whether it stands above or below them.

Assay: gradient 5% acetonitrile 3 min, to 50% in 2 min, to 85% in 15 min, held 3 min, 100 µL/min
Conditions: column: Zorbax Extend-C18 2.1 x 50 mm; eluents: water / acetonitrile, 0.1% formic acid
Outline: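 Retention time was recorded from adduct peaks, which were picked computationally and each inspected manually. Pure standards ran in mixtures of ~100 molecules on HPLC coupled to a quadrupole time-of-flight mass spectrometer, in positive and negative ionization mode, through a Zorbax Extend-C18 column (2.1 × 50 mm, 1.8 μm) at 100 μL/min. Eluents were water and acetonitrile, each with 0.1% formic acid.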

Structure (SMILES): O=C(Nc1ccc(Cl)c(N2CCCS2(=O)=O)c1)c1ccccc1C(F)(F)F
- RP-LC retention time: 791 s

Structure (SMILES): Cc1nc2c(NS(=O)(=O)c3ccc(F)c(C)c3)cccn2n1
- RP-LC retention time: 784 s

Structure (SMILES): Cc1ccc(S(=O)(=O)N2CCCC(Cn3cnc4cccnc43)C2)c(C)c1 (centres undefined)
- RP-LC retention time: 821 s

Structure (SMILES): O=C1[C@H]2CN(Cc3ccc(F)cc3Cl)C[C@H]2C(=O)N1Cc1ccc2c(c1)OCO2
- RP-LC retention time: 992 s

Structure (SMILES): Cc1cc(-c2nnc(-c3ccccc3)o2)c(C)n1CC(=O)NCc1ccccc1
- RP-LC retention time: 903 s

Structure (SMILES): Cc1ccc(-c2cn3c(CC(=O)NCCc4ccccc4)csc3n2)cc1C
- RP-LC retention time: 928 s

Structure (SMILES): Cc1cc2n(n1)CCCN2C(=O)CCC(=O)N1CCc2ccccc2C1
- RP-LC retention time: 699 s

Structure (SMILES): CC(C)c1ccc(CNC(=O)Cc2nnc(-c3ccc4ncccc4c3)o2)cc1
- RP-LC retention time: 811 s

Structure (SMILES): CCOC(=O)CCNC(=O)C1CCCN(c2nccnc2Oc2ccc(C)cc2)C1 (centres undefined)
- RP-LC retention time: 884 s

Structure (SMILES): COc1ccc2c(c1)CC(C(=O)NCCCN1CCN(C3CCCCC3)CC1)CO2 (centres undefined)
- RP-LC retention time: 576 s

Structure (SMILES): Cc1ccc2c(c1)NC(=O)c1cc(NS(=O)(=O)c3ccccc3F)ccc1O2
- RP-LC retention time: 571 s

Structure (SMILES): Cc1ccc(C2Cn3nnc(-c4nc(-c5ccccc5Cl)no4)c3CO2)c(C)c1 (centres undefined)
- RP-LC retention time: 1290 s

Structure (SMILES): CC1(C(=O)N2CCN(c3ccccn3)CC2)CCCCC(=O)N1 (centres undefined)
- RP-LC retention time: 552 s

Structure (SMILES): Cc1ccc2c(Nc3ccc(S(N)(=O)=O)cc3)c(C(=O)OC(C)C)cnc2n1
- RP-LC retention time: 840 s

Structure (SMILES): CC1CCN(c2cncnc2-n2cc(NC(=O)CC3CCCCC3)cn2)CC1
- RP-LC retention time: 1030 s

Structure (SMILES): Cc1ccc(-c2nc(CN3CCOCC3)c(C)o2)cc1
- RP-LC retention time: 640 s

Structure (SMILES): CCC(=O)N1CCc2cc(N3CC(C(=O)Nc4cccc(OC)c4)CC3=O)ccc21 (centres undefined)
- RP-LC retention time: 750 s

Structure (SMILES): COc1ccc2c(c1)C1(CCN(C(=O)c3ccccc3F)C1)C(=O)N2 (centres undefined)
- RP-LC retention time: 703 s

Structure (SMILES): Cn1ccc2cc(CCC(=O)N3CCN(c4ccc(Cl)cc4)CC3)ccc21
- RP-LC retention time: 1050 s

Structure (SMILES): CCc1cc(=O)n(Cc2cccc(F)c2)c(N2CCOCC2)n1
- RP-LC retention time: 909 s

Structure (SMILES): O=C(CN1C(=O)C(C(=O)N2CCCC2)Sc2ccccc21)Nc1ccc(F)c(F)c1 (centres undefined)
- RP-LC retention time: 1040 s

Structure (SMILES): COc1ccc(Cl)cc1NC(=O)C1CCCN(c2ncnc3c2nc2n3CCCCC2)C1 (centres undefined)
- RP-LC retention time: 934 s

Structure (SMILES): CCC(=O)N1CCc2cc(C(=O)N3CCN(Cc4ccc5c(c4)OCO5)CC3)ccc21
- RP-LC retention time: 611 s

Structure (SMILES): COc1cccc(-c2noc(N3CCN(c4ccccn4)CC3)n2)c1
- RP-LC retention time: 678 s

Structure (SMILES): CCc1cnn2c(NCc3ccc[n+]([O-])c3)cc(N3CCCC[C@H]3CCO)nc12
- RP-LC retention time: 637 s

Structure (SMILES): c1cc(-c2nc(-c3ccc4c(c3)ncn4CCN3CCCCC3)no2)ccn1
- RP-LC retention time: 581 s

Structure (SMILES): O=C(Cn1cnc(-c2ccc(F)cc2)cc1=O)NCc1cccs1
- RP-LC retention time: 703 s

Structure (SMILES): COc1cc(OC)cc(C(=O)N(C)CCc2noc(-c3ccc(C(=O)N4CCCC4)cc3)n2)c1
- RP-LC retention time: 759 s

Structure (SMILES): O=C(c1ccccc1Cl)N1CCN(c2nc(CN3CCOCC3)cs2)CC1
- RP-LC retention time: 600 s

Structure (SMILES): Cc1ccccc1CNC(=O)CS(=O)Cc1cnn(-c2ccccc2)c1-n1cccc1 (centres undefined)
- RP-LC retention time: 875 s

Structure (SMILES): Cc1ccc(C2Cn3nnc(-c4nc(-c5ccc(C(F)(F)F)cc5)no4)c3CO2)c(C)c1 (centres undefined)
- RP-LC retention time: 1300 s

Structure (SMILES): O=C(Nc1nccs1)C1CCN(C(=O)C2c3ccccc3Oc3ccccc32)CC1
- RP-LC retention time: 799 s

Structure (SMILES): CCOC(=O)c1c(C)[nH]c(C(=O)N2CCCC(C(=O)NCc3ccccc3C)C2)c1C (centres undefined)
- RP-LC retention time: 814 s

Structure (SMILES): COc1cccc2c(NC(=O)c3ccccc3F)cc(C)nc12
- RP-LC retention time: 579 s

Structure (SMILES): CCOc1ccc(OCC)c(NC(=O)C2CCN(c3nccnc3Sc3ccc(C)cc3)CC2)c1
- RP-LC retention time: 1380 s

Structure (SMILES): COc1ccc(NC(=O)Cn2c(=O)n(-c3ccc(C)cc3)c3ncccc32)c(OC)c1
- RP-LC retention time: 872 s

Structure (SMILES): COc1ccc(-c2cc3n(n2)CCCN(C(C)=O)C3)cc1
- RP-LC retention time: 656 s

Structure (SMILES): Cc1noc(-c2ccc(OC3CN(C(=O)c4cccc5[nH]ccc45)C3)cc2)n1
- RP-LC retention time: 597 s

Structure (SMILES): COc1ccc(NC(=O)C2CCN(c3nc4ccc(-c5cncnc5)nc4s3)CC2)cc1
- RP-LC retention time: 860 s

Structure (SMILES): Cc1cc2c(c(C#N)c1C)NC=NC2C (centres undefined)
- RP-LC retention time: 641 s

Structure (SMILES): Cc1cc(S(=O)(=O)N2CCC(OCc3noc(C4CCCO4)n3)CC2)ccc1Cl (centres undefined)
- RP-LC retention time: 1040 s

Structure (SMILES): COC(=O)c1c(C)[nH]c(C(=O)N2CCCC(C(=O)NCc3ccc(OC(C)C)cc3)C2)c1C (centres undefined)
- RP-LC retention time: 812 s

Structure (SMILES): CCCOc1cccc(C(=O)N(Cc2ccc(Br)o2)C2CCS(=O)(=O)C2)c1 (centres undefined)
- RP-LC retention time: 1010 s

Structure (SMILES): CCn1cc(-c2ccc(F)cc2)cc1C(=O)N1CCC(C)CC1
- RP-LC retention time: 1150 s

Structure (SMILES): CCCCOC(=O)c1ccc(NC(=O)c2c(OC)cc(=O)n3c2CCCC3)cc1
- RP-LC retention time: 857 s

Structure (SMILES): COc1ccc(Cl)cc1N1CC(c2nc(-c3ccccc3F)no2)CC1=O (centres undefined)
- RP-LC retention time: 943 s

Structure (SMILES): CS(=O)(=O)Nc1ccc(C2(C(=O)NCc3ccco3)CCCCC2)cc1
- RP-LC retention time: 806 s

Structure (SMILES): CCNC(=O)C1CCN(c2nc3ncn(CC(=O)Nc4ccc(C)cc4C)c(=O)c3s2)CC1
- RP-LC retention time: 675 s

Structure (SMILES): O=C(Cn1nc2n(c1=O)CCCC2)N1CCN(c2ccc(F)cc2)CC1
- RP-LC retention time: 651 s

Structure (SMILES): COc1ccc(-c2c(C)noc2NC(C)=O)cc1S(=O)(=O)Nc1cc(F)ccc1F
- RP-LC retention time: 748 s

Structure (SMILES): Cc1cc2c(cc1S(=O)(=O)N1CCCC1C(=O)Nc1cccc(Cl)c1)OCC(=O)N2 (centres undefined)
- RP-LC retention time: 817 s

Structure (SMILES): Cc1ccc(NS(=O)(=O)c2cc3n(c2)CCN(C(C)C)C3=O)c(C)c1
- RP-LC retention time: 800 s

Structure (SMILES): Cc1cc(OCC(=O)Nc2cccc(Cl)c2)nc(N2CCN(c3ccccc3)CC2)n1
- RP-LC retention time: 904 s

Structure (SMILES): CCN(C(=O)c1nc(N2CCOCC2)c2cnn(C)c2n1)c1ccccc1
- RP-LC retention time: 693 s

Structure (SMILES): COc1ccc2[nH]cc(CCNC(=O)C(C)n3c4ccccc4c4cnn(C)c(=O)c43)c2c1 (centres undefined)
- RP-LC retention time: 813 s

Structure (SMILES): Cc1oc2ccn(Cc3ccc(F)cc3)c(=O)c2c1C(=O)O
- RP-LC retention time: 873 s

Structure (SMILES): CS(=O)(=O)Nc1cccc(NC(=O)Cc2csc(NC(=O)c3ccsc3)n2)c1
- RP-LC retention time: 676 s

Structure (SMILES): O=C(NCc1ccc2c(c1)OCO2)c1cn2c(n1)CCCC2
- RP-LC retention time: 581 s

Structure (SMILES): CCOc1cc(=O)n2c(c1C(=O)Nc1cc(F)ccc1Cl)CCCC2
- RP-LC retention time: 822 s

Structure (SMILES): COc1ccccc1CCC(=O)NCc1cccnc1OC
- RP-LC retention time: 749 s

Structure (SMILES): Cc1cc(C)cc(NC(=O)CN2CCN(Cc3ccc(F)cc3)C(=O)C2=O)c1
- RP-LC retention time: 798 s

Structure (SMILES): O=C(Nc1ccc(N2CCN(c3ccccc3)C2=O)nc1)c1ccc(Br)o1
- RP-LC retention time: 892 s

More lines, now with the values ahead:

- RP-LC retention time: 874 s
Structure (SMILES): CCOC(=O)c1ccc(-n2ccc3nc(C)c(C(=O)OC)cc3c2=O)cc1

- RP-LC retention time: 647 s
Structure (SMILES): O=C(NCCCN1CCCC1=O)c1ccc2ccnc(N3CCN(c4ccc(F)cc4)CC3)c2c1

- RP-LC retention time: 751 s
Structure (SMILES): CC(Oc1ccc(-c2cnc3ccccc3n2)cc1)C(=O)N1CCOCC1 (centres undefined)

- RP-LC retention time: 891 s
Structure (SMILES): O=C(CSc1nnc2c3cc(-c4ccc(F)cc4)nn3ccn12)Nc1ccc(F)cc1F

- RP-LC retention time: 615 s
Structure (SMILES): O=C(Cn1c(C2CCCO2)nc2ccccc21)NCc1cccs1 (centres undefined)

- RP-LC retention time: 623 s
Structure (SMILES): CCNC(=O)CCc1cc2ccccc2[nH]c1=O

- RP-LC retention time: 913 s
Structure (SMILES): COc1ccccc1CNC(=O)C1CCC(=O)N1S(=O)(=O)c1ccc(C)c(C)c1 (centres undefined)

- RP-LC retention time: 1050 s
Structure (SMILES): Cc1ccc(-c2csc(NC(=O)CSc3nnc(-c4cc5ccccc5o4)n3C)n2)cc1

- RP-LC retention time: 746 s
Structure (SMILES): CCOc1ccccc1C(=O)N1CCCCC1c1nncn1CC1CC1 (centres undefined)

- RP-LC retention time: 620 s
Structure (SMILES): CCOc1cc2ncc(C#N)c(Nc3ccc(OCc4ccccn4)c(Cl)c3)c2cc1NC(=O)/C=C/CN(C)C

- RP-LC retention time: 787 s
Structure (SMILES): CC1Oc2ccc(-c3csc(NC(=O)C4CC4)n3)cc2N(C)C1=O (centres undefined)

- RP-LC retention time: 992 s
Structure (SMILES): CCOC(=O)[C@H]1O[C@@H]1C(=O)N[C@@H](CC(C)C)C(=O)NCCC(C)C

- RP-LC retention time: 568 s
Structure (SMILES): CCN1CCN(c2ncc3c(n2)CCN(Cc2ccc(Br)s2)C3)CC1

- RP-LC retention time: 792 s
Structure (SMILES): Cc1ccc(Nc2c(-c3ccc(N(C)C)cc3)nc3ncccn23)cc1C

- RP-LC retention time: 871 s
Structure (SMILES): CN1C(=O)C2CCCCN2c2ccc(C(=O)NCCc3c[nH]c4ccccc34)cc21 (centres undefined)

- RP-LC retention time: 748 s
Structure (SMILES): Cc1cccc(NC(=O)N2CCC3(CC2)NC(=O)c2cc(F)ccc2N3C)c1

- RP-LC retention time: 928 s
Structure (SMILES): CN(C)c1nn(CC(=O)Nc2ccc(F)c(Cl)c2)c(=O)c2ccccc12

- RP-LC retention time: 691 s
Structure (SMILES): O=C(Nc1ccc2c(c1)OCCO2)C1CCCN(c2ccnc(-c3ccc(F)cc3)n2)C1 (centres undefined)

- RP-LC retention time: 1240 s
Structure (SMILES): O=C(Nc1ccc(F)cc1)c1c(O)c2cccnc2n(-c2ccccc2)c1=O

- RP-LC retention time: 630 s
Structure (SMILES): Cc1ccc(-c2noc(CCN3CCN(C)CC3)n2)cc1

- RP-LC retention time: 841 s
Structure (SMILES): Cc1nc(Nc2ccccn2)sc1C(=O)N1CCN(c2ccccc2F)CC1

- RP-LC retention time: 602 s
Structure (SMILES): O=C(NCc1ccccn1)C1CCN(C(=O)c2ncn3c2COC(c2ccccc2)C3)CC1 (centres undefined)

- RP-LC retention time: 693 s
Structure (SMILES): CCCNc1cc(N2CCC(CCC(=O)NCCC(C)C)CC2)ncn1

- RP-LC retention time: 1020 s
Structure (SMILES): COc1ccc(OC)c(CNC(=O)c2cc(-c3ccccc3)cn2C)c1

- RP-LC retention time: 613 s
Structure (SMILES): Cc1cc(Cl)ccc1-n1ncc2c(N3CCN(CCO)CC3)ncnc21

- RP-LC retention time: 579 s
Structure (SMILES): COc1ncccc1C(=O)NCc1nnc(C)o1

- RP-LC retention time: 840 s
Structure (SMILES): Cn1c(=O)c(=O)n(C)c2cc(N3CCCCC3)c(NC(=O)c3ccco3)cc21
